Patent US11220524B2, “Selective inhibitors of protein arginine methyltransferase 5 (PRMT5)” (PRELUDE THERAPEUTICS, INCORPORATED, priority 2017, dated 2022)
Counter-ions that a name gives are not always drawn.

target: PRMT5/MEP50 complex (Homo sapiens (Human), UniProt O14744); assay: Biochemical assay: PRMT5/MEP50 methylation of histone H2A with 3H-SAM, filter plate scintillation; details: biochemical potency; read-out: PRTMT5/MEP50 IC50
Experimental: Biochemical Assay Protocol
Compounds were solubilized, and 3-fold diluted in 100% DMSO. […] Standard reactions were performed in a total volume of […] assay buffer, with histone H2A (5 μM final) as substrate. To this was added the PRMT5/MEP50 complex diluted to provide a final assay concentration of 5 nM and the compounds were allowed to preincubate for 15 to 20 minutes at room temperature. The reaction was initiated by adding S-[3H-methyl]-adenosyl-L-methionine (PerkinElmer) to final concentration of 1 μM. Following a 60 minutes incubation at 30° C., the reaction was stopped by adding 100 μL of 20% TCA. Each reaction was spotted onto filter plate (MultiScreen FB Filter Plate, Millipore), and washed 5 times with PBS buffer, Scintillation fluid was added to the filter plate and read in a scintillation counter. IC50 values were determined by fitting the data to the standard 4 parameters with Hill Slope using GraphPad Prism software.

Sequence of PRMT5/MEP50 complex (O14744 whole entry): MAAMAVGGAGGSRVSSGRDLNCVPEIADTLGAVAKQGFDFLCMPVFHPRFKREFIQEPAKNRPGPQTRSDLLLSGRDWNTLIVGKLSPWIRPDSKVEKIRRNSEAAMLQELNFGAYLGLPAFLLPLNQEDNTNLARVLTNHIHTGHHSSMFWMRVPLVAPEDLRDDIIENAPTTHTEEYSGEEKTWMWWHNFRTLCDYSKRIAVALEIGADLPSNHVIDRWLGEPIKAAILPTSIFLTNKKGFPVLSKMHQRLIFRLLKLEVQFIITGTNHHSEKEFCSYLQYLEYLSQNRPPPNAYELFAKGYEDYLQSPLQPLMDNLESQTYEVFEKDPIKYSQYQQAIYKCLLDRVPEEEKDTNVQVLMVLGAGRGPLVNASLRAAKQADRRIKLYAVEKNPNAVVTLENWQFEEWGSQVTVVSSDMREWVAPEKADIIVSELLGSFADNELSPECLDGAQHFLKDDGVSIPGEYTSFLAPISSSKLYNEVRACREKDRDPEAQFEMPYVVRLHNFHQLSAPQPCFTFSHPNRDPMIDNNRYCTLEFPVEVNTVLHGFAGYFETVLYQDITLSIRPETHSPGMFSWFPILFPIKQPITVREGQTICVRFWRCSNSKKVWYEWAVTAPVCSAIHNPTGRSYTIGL
Sequence of PRMT5/MEP50 complex (Q9BQA1 whole entry partner): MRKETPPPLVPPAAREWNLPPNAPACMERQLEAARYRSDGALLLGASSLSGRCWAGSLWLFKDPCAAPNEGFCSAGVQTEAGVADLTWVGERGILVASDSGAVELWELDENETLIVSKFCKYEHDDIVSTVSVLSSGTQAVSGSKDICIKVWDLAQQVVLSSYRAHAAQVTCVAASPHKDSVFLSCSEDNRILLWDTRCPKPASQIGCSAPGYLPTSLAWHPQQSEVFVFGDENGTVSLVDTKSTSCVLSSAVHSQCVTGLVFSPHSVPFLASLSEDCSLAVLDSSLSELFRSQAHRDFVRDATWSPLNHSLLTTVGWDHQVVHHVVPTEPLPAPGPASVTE

Point of comparison: `CO/N=c1/nc[nH]c2c1ccn2[C@@H]1C[C@H]([C@H](O)c2ccc(Cl)cc2)[C@@H](O)[C@H]1O` [Example 49-B, (1S,2R,3R,5R)-3-[(S)-(4-chlorophenyl)-hydroxy-methyl]-5-[(4Z)-4-methoxyimino-1H-pyrrolo[2,3-d]pyrimidin-7-yl]cyclopentane-1,2-diol hydrochloride], IC50 543 nM. Against it:
- N/N=c1/nc[nH]c2c1c(F)cn2[C@@H]1C[C@H]([C@H](O)c2ccc(Cl)cc2)[C@@H](O)[C@H]1O [Example 28-B, 7-[(1R,2S,3R,4R)-4-[(S)-(4-chlorophenyl)-hydroxy-methyl]-2,3-dihydroxy-cyclopentyl]-5-fluoro-H-pyrrolo[2,3-d]pyrimidin-4-one hydrazone hydrochloride] — 2.1-fold higher, 1160 nM
- O/N=c1\nc[nH]c2c1ccn2[C@@H]1C[C@H]([C@H](O)c2ccc(F)c(F)c2)[C@@H](O)[C@H]1O [Example 88-B, 7-((1R,2S,3R,4R)-4-((S)-(3,4-difluorophenyl)(hydroxy)methyl)-2,3-dihydroxycyclopentyl)-1,7-dihydro-4H-pyrrolo[2,3-d]pyrimidin-4-one oxime] — 15-fold lower, 37 nM
- CO/N=c1\nc[nH]c2c1ccn2[C@@H]1C[C@H]([C@H](O)c2ccc(F)c(F)c2)[C@@H](O)[C@H]1O [Example 89-B, 7-((1R,2S,3R,4R)-4-((S)-(3,4-difluorophenyl)(hydroxy)methyl)-2,3-dihydroxycyclopentyl)-1,7-dihydro-4H-pyrrolo[2,3-d]pyrimidin-4-one O-methyl oxime] — 5.7-fold lower, 95 nM
- O/N=c1/nc[nH]c2c1ccn2[C@@H]1C[C@H]([C@H](O)c2ccc(Cl)c(Cl)c2)[C@@H](O)[C@H]1O [Example 93-B, 7-((1R,2S,3R,4R)-4-((S)-(3,4-dichlorophenyl)(hydroxy)methyl)-2,3-dihydroxycyclopentyl)-1,7-dihydro-4H-pyrrolo[2,3-d]pyrimidin-4-one oxime] — 240-fold lower, 2.3 nM

same assay, conditions: histone H2A 5 μM, SAM 1 μM, enzyme 5 nM; read-out: PRMT5/MEP50 IC50

Point of comparison: `CCO/N=c1\[nH]cnc2c1ncn2[C@@H]1O[C@H]([C@](C)(O)c2ccc(Cl)c(Cl)c2)[C@@H](O)[C@H]1O` [Example 93, (2S,3S,4R,5R)-2-[(1R)-Example 931-(3,4-dichlorophenyl)-1-hydroxy-ethyl]-5-[(6Z)-6-ethoxyimino-1H-purin-9-yl]tetrahydrofuran-3,4-diol], IC50 920 nM. Against it:
- CO/N=c1\[nH]cnc2c1ncn2[C@@H]1O[C@H]([C@](C)(O)c2ccc(Cl)c(C)c2)[C@@H](O)[C@H]1O [Example 94, (2S,3S,4R,5R)-2-[(1R)-1-(4-chloro-3-methylphenyl)-1-hydroxy-ethyl]-5-[(6Z)-6-methoxyimino-1H-purin-9-yl]tetrahydrofuran-3,4-diol] — 1.8-fold higher, 1620 nM
- CCO/N=c1\[nH]cnc2c1ncn2[C@@H]1O[C@H]([C@](C)(O)c2ccc(Cl)c(C)c2)[C@@H](O)[C@H]1O [Example 95, (2S,3S,4R,5R)-2-[(1R)-1-(4-chloro-3-methylphenyl)-1-hydroxy-ethyl]-5-[(6Z)-6-ethoxyimino-1H-purin-9-yl]tetrahydrofuran-3,4-diol] — within 1.5-fold, 699 nM
- CCO/N=c1\nc[nH]c2c1ccn2[C@@H]1O[C@H]([C@H](O)c2ccc(Cl)cc2)[C@@H](O)[C@H]1O [Example 97, 7-((2R,3R,4S,5R)-5-((R)-(4-chlorophenyl)(hydroxy)methyl)-3,4-dihydroxytetrahydrofuran-2-yl)-1,7-dihydro-4H-pyrrolo[2,3-d]pyrimidin-4-one O-ethyl oxime] — 22-fold lower, 42 nM
- CO/N=c1\nc[nH]c2c1c(CCO)cn2[C@@H]1O[C@H]([C@H](O)c2ccc(Cl)c(Cl)c2)[C@@H](O)[C@H]1O [Example 100, 7-((2R,3R,4S,5R)-5-((R)-(3,4-dichlorophenyl)(hydroxy)methyl)-3,4-dihydroxytetrahydrofuran-2-yl)-5-(2-hydroxyethyl)-1,5-dihydro-4H-7l4-pyrrolo[2,3-d]pyrimidin-4-one O-methyl oxime] — 1.9-fold higher, 1770 nM
- C#Cc1cn([C@@H]2O[C@H]([C@H](O)c3ccc(Cl)cc3)[C@@H](O)[C@H]2O)c2[nH]cn/c(=N\OC)c12 [Example 101, 7-((2R,3R,4S,5R)-5-((R)-(4-chlorophenyl)(hydroxy)methyl)-3,4-dihydroxytetrahydrofuran-2-yl)-5-ethynyl-1,7-dihydro-4H-pyrrolo[2,3-d]pyrimidin-4-one O-methyl oxime] — 3-fold lower, 308 nM
- C#Cc1cn([C@@H]2O[C@H]([C@H](O)c3ccc(Cl)c(Cl)c3)[C@@H](O)[C@H]2O)c2[nH]cn/c(=N\OC)c12 [Example 104, 7-((2R,3R,4S,5R)-5-((R)-(3,4-dichlorophenyl)(hydroxy)methyl)-3,4-dihydroxytetrahydrofuran-2-yl)-5-ethynyl-1,5-dihydro-4H-7l4-pyrrolo[2,3-d]pyrimidin-4-one O-methyl oxime] — 90-fold lower, 10.2 nM
- C[C@@](O)(C1C=C(Cl)C(Cl)=CC1)[C@H]1O[C@@H](n2ccc3/c(=N\O)nc[nH]c32)[C@H](O)[C@@H]1O (stereo partly drawn) [Example 105, 7-((2R,3R,4S,5S)-5-((1R)-1-(3,4-dichlorocyclohexa-2,4-dien-1-yl)-1-hydroxyethyl)-3,4-dihydroxytetrahydrofuran-2-yl)-1,7-dihydro-4H-pyrrolo[2,3-d]pyrimidin-4-one oxime] — 4600-fold lower, 0.2 nM
- O[C@@H]1[C@H](O)[C@@H]([C@H](O)c2ccc(Cl)c(Cl)c2)O[C@H]1n1ccc2/c(=N/OCC(F)F)nc[nH]c21 [Example 106, 7-((2R,3R,4S,5R)-5-((R)-(3,4-dichlorophenyl)(hydroxy)methyl)-3,4-dihydroxytetrahydrofuran-2-yl)-1,4a,7,7a-tetrahydro-4H-pyrrolo[2,3-d]pyrimidin-4-one 0-(2,2-difluoroethyl) oxime] — 8.1-fold lower, 113 nM
- CO/N=c1\nc[nH]c2c1c(F)cn2[C@@H]1O[C@H]([C@](C)(O)c2ccc(Cl)c(Cl)c2)[C@@H](O)[C@H]1O [Example 107, 7-((2R,3R,4S,5S)-5-((R)-1-(3,4-dichlorophenyl)-1-hydroxyethyl)-3,4-dihydroxytetrahydrofuran-2-yl)-5-fluoro-1,7-dihydro-4H-pyrrolo[2,3-d]pyrimidin-4-one O-methyl oxime] — 33-fold lower, 28 nM
- N/N=c1/nc[nH]c2c1ncn2[C@@H]1O[C@H]([C@H](O)c2ccc(Cl)cc2)[C@@H](O)[C@H]1O [compound 39, (2R,3S,4R,5R)-2-[(R)-(4-chlorophenyl)-hydroxy-methyl]-5-(6-hydrazinopurin-9-yl) tetrahydrofuran-3,4-diol] — 5.1-fold lower, 180 nM
- CO/N=c1/nc[nH]c2c1ncn2[C@@H]1O[C@H]([C@H](O)c2ccc(Cl)cc2)[C@@H](O)[C@H]1O [compound 53, (2R,3S,4R,5R)-2-[(R)-(4-chlorophenyl)-hydroxy-methyl]-5-[6-methoxyimino-3H-purin-9-yl]tetrahydrofuran-3,4-diol trifluoroacetic Acid Salt] — 1.7-fold lower, 526 nM
- CO/N=c1\nc[nH]c2c1c(F)cn2[C@@H]1OC([C@H](O)c2ccc(Cl)cc2)[C@@H](O)[C@H]1O (stereo partly drawn) [compound 74, 7-((2R,3R,4S)-5-((R)-(4-chlorophenyl)(hydroxy)methyl)-3,4-dihydroxytetrahydrofuran-2-yl)-5-fluoro-1,7-dihydro-4H-pyrrolo[2,3-d]pyrimidin-4-one O-methyl oxime] — 12-fold lower, 75.6 nM
- CO/N=c1\nc[nH]c2c1ccn2[C@@H]1O[C@H]([C@H](O)c2ccc(C(F)(F)F)cc2)[C@@H](O)[C@H]1O [compound 75, 7-((2R,3R,4S,5R)-3,4-dihydroxy-5-((R)-hydroxy(4-(trifluoromethyl)phenyl)methyl)tetrahydrofuran-2-yl)-1,7-dihydro-4H-pyrrolo[2,3-d]pyrimidin-4-one O-methyl oxime] — 9.6-fold lower, 95.4 nM
- N/N=c1\nc[nH]c2c1ccn2[C@@H]1O[C@H]([C@H](O)c2ccc(C(F)(F)F)cc2)[C@@H](O)[C@H]1O [compound 76, (2R,3R,4S,5R)-2-((Z)-4-hydrazineylidene-1,4-dihydro-7H-pyrrolo[2,3-d]pyrimidin-7-yl)-5-((R)-hydroxy(4-(trifluoromethyl)phenyl)methyl)tetrahydrofuran-3,4-diol] — 340-fold lower, 2.7 nM
- Cc1cn([C@@H]2O[C@H]([C@H](O)c3ccc(Cl)cc3)[C@@H](O)[C@H]2O)c2[nH]cn/c(=N\O)c12 [compound 77, 7-((2R,3R,4S,5R)-5-((R)-(4-chlorophenyl)(hydroxy)methyl)-3,4-dihydroxytetrahydrofuran-2-yl)-5-methyl-1,7-dihydro-4H-pyrrolo[2,3-d]pyrimidin-4-one oxime] — 7.8-fold lower, 118 nM
- CO/N=c1\nc[nH]c2c1ccn2[C@@H]1OC([C@](O)(c2ccc(Cl)cc2)C(F)(F)F)[C@@H](O)[C@H]1O (stereo partly drawn) [compound 79, 7-((2R,3R,4S)-5-((R)-1-(4-chlorophenyl)-2,2,2-trifluoro-1-hydroxyethyl)-3,4-dihydroxytetrahydrofuran-2-yl)-1,7-dihydro-4H-pyrrolo[2,3-d]pyrimidin-4-one O-methyl oxime] — 7-fold higher, 6460 nM
